Data taken from patent US8895568B2, “Compositions comprising substituted pteridines as agrochemicals” (Dow AgroSciences LLC, priority 2009, dated 2014).
Where two headings read alike, the source gives them in different places.

Key:
Assay type in all cases: in vivo
[1] = tested on: Colletotricum lagenarium; assay: Cucumber Anthracnose (COLLLA), foliar spray, percent disease control
Protocol: The activity of the compounds as effective fungicides was determined by applying the compounds to plants and observing control of fungal disease. The compounds were formulated at 200 ppm in 10 vol. % acetone plus 90 vol. % Triton X water (deionized water 99.99 wt %+0.01 wt % Triton X100), giving a “formulated test compound.” In a few cases, compounds were formulated at 75 or 8.3 ppm rather than 200 ppm in 10 vol. % acetone plus 90 vol. % Triton X water (deionized water 99.99 wt. %+0.01 wt. % Triton X100), giving a “formulated test compound.” Formulated test compounds were applied to plants using a turn table sprayer fitted with two opposing air atomization nozzles which delivered approximately 1500 L/ha of spray volume. All plants were inoculated with spores of the fungus the day after treatment, then incubated in an environment conducive to disease development. Disease severity was evaluated 4 to 15 days later, depending on the disease and the speed of disease development. The following experiments were performed in the laboratory to determine the fungicidal efficacy of the compounds of the invention. Cucumber Anthracnose (causal agent Colletotricum lagenarium; Bayer code COLLLA): Cucumber plants (variety Bush Champion) were grown from seed in a soil-less peat-based potting mixture (Metromix) until the first true leaf was 20-80% expanded. Each pot contained 1 seedling. These plants were sprayed until wet with the formulated test compound. On the following day, the leaves were inoculated with an aqueous spore suspension of Colletotricum lagenarium and the plants were kept in high humidity for one day to permit spores to germinate and infect the leaf. The plants were then transferred to a growth chamber until disease developed on untreated control plants. […] The effectiveness of the test compounds at controlling disease when sprayed on leaves was determined by assessing the severity of disease on treated plants, then converting the severity to percent control based on the level of disease on untreated, inoculated plants. Data are the level (in percent) at which the given disease was controlled when the given compound was applied to the foliage of the plants at 200 ppm. In a few cases (noted in the table) the compound was applied to the plants at 75 ppm or 8.3 ppm.

[2] = tested on: Pseudoperonospora cubensis; assay: Cucumber Downy Mildew (PSPECU), foliar spray, percent disease control; conditions: read-out: PSPECU percent control
Protocol: The activity of the compounds as effective fungicides was determined by applying the compounds to plants and observing control of fungal disease. The compounds were formulated at 200 ppm in 10 vol. % acetone plus 90 vol. % Triton X water (deionized water 99.99 wt %+0.01 wt % Triton X100), giving a “formulated test compound.” In a few cases, compounds were formulated at 75 or 8.3 ppm rather than 200 ppm in 10 vol. % acetone plus 90 vol. % Triton X water (deionized water 99.99 wt. %+0.01 wt. % Triton X100), giving a “formulated test compound.” Formulated test compounds were applied to plants using a turn table sprayer fitted with two opposing air atomization nozzles which delivered approximately 1500 L/ha of spray volume. All plants were inoculated with spores of the fungus the day after treatment, then incubated in an environment conducive to disease development. Disease severity was evaluated 4 to 15 days later, depending on the disease and the speed of disease development. The following experiments were performed in the laboratory to determine the fungicidal efficacy of the compounds of the invention. Cucumber Downy Mildew (causal agent Pseudoperonospora cubensis; Bayer code […]): Cucumber plants (variety Bush Champion) were grown from seed in a soil-less peat-based potting mixture (Metromix) until the first true leaf was 20-80% expanded. Each pot contained 1 seedling. These plants were sprayed until wet with the formulated test compound. On the following day, the leaves were inoculated with an aqueous suspension of downy mildew sporangia and the plants were kept in high humidity for one day to permit sporangia to germinate and infect the leaf. The plants were then incubated in a growth chamber until disease developed on untreated control plants. […] The effectiveness of the test compounds at controlling disease when sprayed on leaves was determined by assessing the severity of disease on treated plants, then converting the severity to percent control based on the level of disease on untreated, inoculated plants. Data are the level (in percent) at which the given disease was controlled when the given compound was applied to the foliage of the plants at 200 ppm. In a few cases (noted in the table) the compound was applied to the plants at 75 ppm or 8.3 ppm.

[3] = tested on: Cochliobolus sativus; assay: Spot Blotch of Wheat (COCHSA), foliar spray, percent disease control; conditions: Bipolaris sorokiniana, read-out: COCHSA percent control

Row | SMILES | pest or weed control at 200 µg/mL ([1]; foliar) [%] | pest or weed control at 200 µg/mL ([2]; foliar) [%] | pest or weed control at 200 µg/mL ([3]; foliar) [%] | pest or weed control at 200 µg/mL ([1]; foliar spray) [%] | pest or weed control at 200 µg/mL ([2]; foliar spray) [%] | pest or weed control at 200 µg/mL ([3]; foliar spray) [%]
1 | CCc1ccc(Oc2ccc(CCN(C(=O)OC(C)(C)C)c3ncnc4nccnc34)cc2)cc1 [Compound 139] | 0 to 49 | 0 to 49 | 0 to 49 |  |  | 
2 | COc1ccnc(Oc2ccc(CCNc3ncnc4nccnc34)cc2)n1 [Compound 16] | 0 to 49 | 80 to 100 | 0 to 49 |  |  | 
3 | Clc1nccc(Oc2ccc(CCNc3ncnc4nccnc34)cc2)n1 [Compound 24] | 50 to 79 | 80 to 100 | 0 to 49 |  |  | 
4 | COC(=O)c1ccnc(Oc2ccc(CCNc3ncnc4nccnc34)cc2)c1 [Compound 135] | 0 to 49 | 80 to 100 | 0 to 49 |  |  | 
5 | c1ccc(COc2ccc(CCNc3ncnc4nccnc34)cc2)cc1 [Compound 1, [2-(4-Benzyloxyphenyl)-ethyl]-pteridin-4-yl-amine] | 80 to 100 | 80 to 100 | 50 to 79 |  |  | 
6 | Oc1cccc(OCCNc2ncnc3nccnc23)c1 [Compound 81] | 0 to 49 | 80 to 100 | 0 to 49 |  |  | 
7 | Cc1c(CCNc2ncnc3nccnc23)ccc(Oc2cncc(Cl)c2C#N)c1C [Compound 147] | 0 to 49 | 80 to 100 | 0 to 49 |  |  | 
8 | COc1cc(CCNc2ncnc3nccnc23)cc(OC)c1Oc1cc(C(F)(F)F)ccn1 [Compound 186] | 0 to 49 | 80 to 100 | 0 to 49 |  |  | 
9 | CC(C)Oc1cc(CCNc2ncnc3nccnc23)ccc1Oc1cc(C(C)(F)F)ccn1 [Compound 195] | 50 to 79 | 80 to 100 | 0 to 49 |  |  | 
10 | CC(C)Cc1nnc(Oc2ccc(CCNc3ncnc4nccnc34)cc2)s1 [Compound 26] | 0 to 49 | 80 to 100 | 0 to 49 |  |  | 
11 | Fc1nc(F)c(F)c(Oc2ccc(CCNc3ncnc4nccnc34)cc2)c1F [Compound 94] | 50 to 79 | 50 to 79 | 0 to 49 |  |  | 
12 | FC(F)(F)c1cnccc1Oc1cccc(CCNc2ncnc3nccnc23)c1 [Compound 77] | 0 to 49 | 80 to 100 | 0 to 49 |  |  | 
13 | Fc1ccc(-c2ccc(CCNc3ncnc4nccnc34)cc2)cn1 [Compound 121, {2-[4-(6-Fluoropyridin-3-yl)-phenyl]-ethyl}-pteridin-4-yl-amine] | 0 to 49 | 80 to 100 | 0 to 49 |  |  | 
14 | COc1ccc(C(C)Nc2ncnc3nccnc23)cc1 (stereo not drawn) [Compound 17] | 50 to 79 | 80 to 100 | 0 to 49 |  |  | 
15 | N#Cc1nccnc1Oc1ccc(CCNc2ncnc3nccnc23)cc1 [Compound 18] | 0 to 49 | 80 to 100 | 0 to 49 |  |  | 
16 | Oc1ccc(CCNc2ncnc3nccnc23)cc1Br [Compound 211] |  |  |  | 0 to 49 | 0 to 49 | 0 to 49
17 | CC(Nc1ncnc2nccnc12)c1ccccc1 (stereo not drawn) [Compound 9] | 0 to 49 | 80 to 100 | 0 to 49 |  |  | 

Row | SMILES | pest or weed control at 200 µg/mL ([1]; foliar) [%] | pest or weed control at 200 µg/mL ([2]; foliar) [%] | pest or weed control at 200 µg/mL ([3]; foliar) [%] | pest or weed control at 200 µg/mL ([1]; foliar spray) [%] | pest or weed control at 200 µg/mL ([2]; foliar spray) [%] | pest or weed control at 200 µg/mL ([3]; foliar spray) [%]
18 | COc1nsc(Oc2ccc(CCNc3ncnc4nccnc34)cc2)n1 [Compound 21] | 50 to 79 | 50 to 79 | 0 to 49 |  |  | 
19 | FC(F)(F)c1ccnc(Oc2cccc(CCNc3ncnc4nccnc34)c2)c1 [Compound 46] | 80 to 100 | 80 to 100 | 0 to 49 |  |  | 
20 | O=Cc1cc(Cl)cnc1Oc1ccc(CCNc2ncnc3nccnc23)cc1 [Compound 102] | 0 to 49 | 80 to 100 | 0 to 49 |  |  | 
21 | CC(F)(F)c1cc[n+]([O-])c(Oc2ccc(CCNc3ncnc4nccnc34)cc2)c1 [Compound 184, (2-{4-[4-(1,1-difluoroethyl)-1-oxy-pyridin-2-yloxy]-phenyl}-ethyl)-pteridin-4-yl-amine] | 50 to 79 | 80 to 100 | 0 to 49 |  |  | 
22 | Oc1ccc(OCCNc2ncnc3nccnc23)cc1 [Compound 80] | 0 to 49 | 0 to 49 | 0 to 49 |  |  | 
23 | [O-][n+]1ccnc(Oc2ccc(CCNc3ncnc4nccnc34)cc2)c1 [Compound 29] | 0 to 49 | 80 to 100 | 0 to 49 |  |  | 
24 | Fc1cccc(Oc2ccc(OCCNc3ncnc4nccnc34)cc2)n1 [Compound 159] | 0 to 49 | 80 to 100 | 0 to 49 |  |  | 
25 | COc1cc(C(F)(F)F)cc(Oc2ccc(CCNc3ncnc4nccnc34)cc2C)n1 [Compound 167] | 0 to 49 | 80 to 100 | 0 to 49 |  |  | 
26 | COc1cc(C(F)(F)F)cc(Oc2cc(C)c(CCNc3ncnc4nccnc34)cc2C)n1 [Compound 179] | 0 to 49 | 0 to 49 | 0 to 49 |  |  | 
27 | CCOC(=O)c1ccnc(Oc2ccc(CCNc3ncnc4nccnc34)cc2)c1 [Compound 183] | 0 to 49 | 80 to 100 | 0 to 49 |  |  | 
28 | COc1ccc(C(C)Nc2nc(C)nc3nccnc23)cc1 (stereo not drawn) [Compound 19, [1-(4-Methoxyphenyl)ethyl]-2-methylpteridin-4-yl-amine] | 0 to 49 | 0 to 49 | 0 to 49 |  |  | 
29 | COc1cc(C(F)(F)F)cc(Oc2ccc(CCNc3ncnc4nccnc34)cc2)n1 [Compound 171] | 0 to 49 | 80 to 100 | 0 to 49 |  |  | 
30 | FC(F)(F)c1cccnc1Oc1ccc(OCCNc2ncnc3nccnc23)cc1 [Compound 160] | 0 to 49 | 80 to 100 | 0 to 49 |  |  | 
31 | Ic1ccnc(Oc2cccc(CCNc3ncnc4nccnc34)c2)c1 [Compound 74] | 0 to 49 | 80 to 100 | 0 to 49 |  |  | 
32 | N#Cc1c(Cl)cncc1Oc1ccc(CCNc2ncnc3ncc(Cl)nc23)cc1 [Compound 119] | 0 to 49 | 0 to 49 | 0 to 49 |  |  | 
33 | CC(C)Oc1cc(CCNc2ncnc3nccnc23)ccc1Oc1cc(C(F)(F)F)ccn1 [Compound 180, {2-[3-(Isopropoxy)-4-(4-trifluoromethyl-pyridin-2-yloxy)-phenyl]-ethyl}-pteridin-4-ylamine] | 50 to 79 | 80 to 100 | 0 to 49 |  |  | 
34 | FC(F)(F)c1ccc(Oc2cccc(CCNc3ncnc4nccnc34)c2)nc1 [Compound 47] | 50 to 79 | 80 to 100 | 0 to 49 |  |  | 
